Patent US10905761B2, “Use of a lipopeptide or lipoprotein as an adjuvant in therapeutic or prophylactic vaccinations” (HELMHOLTZ-ZENTRUM FUER INFEKTIONSFORSCHUNG GMBH, priority 2002, dated 2021)

Tests used:
Assay type in all cases: in vivo
BALB/c (H-2d) mice [1] = tested on: BALB/c (H-2d) mice
BALB/c (H-2d) mice [2] = assay: β-Galactosidase-specific IgA in lung and vaginal lavages of mice immunized i.n. (Example 5); conditions: i.n. immunization; day 31
Method: The results are shown as percentage of β-galactosidase-specific IgA in relation to the total IgA present. The SEM is indicated by vertical lines.
The mice were sacrificed on day 31, and the final samples were taken. Vaginal and lung lavages were obtained by rinsing the organs with 1 ml of PBS supplemented by 50 mM EDTA, 0.1% BSA and 10 mM PMSF. The lavages were then centrifuged in order to remove tissue detritus (10 min at 3000×g) and the remaining liquid was stored at −20° C. In order to determine the total IgA concentration in the rinsings from lung and vagina, serial dilutions of the corresponding samples were incubated in microtiter plates, these plates having previously been coated with goat anti-mouse IgA (Sigma Chemie) as capture antibody (100 μl/well). Serial dilutions of purified mouse IgA (Sigma Chemie) were used to produce a standard plot.

BALB/c (H-2d) mice [3] = assay: β-Galactosidase-specific IgG isotypes in the serum of immunized mice (ELISA, Example 8); conditions: average ± SEM, 5 mice per group
BALB/c (H-2d) mice [4] = assay: Kinetics of β-gal-specific IgG responses in sera of mice immunized i.n. or i.p. (Example 4); conditions: pure β-galactosidase 50 μg/dose i.n.; after a second boost
Method: Groups of animals (n=5) were immunized either i.n. (A) or i.p. (B) with 50 μg of β-gal ( ), β-gal plus 10 μg of CTB ( ), β-gal plus 0.5 μg of MALP-2 ( ) or pure buffer solution ( ). The days of the immunizations (day 0, 14 and 21) are marked by arrows. The results are shown as the reciprocal log2 of the geometric endpoint titer, and the SEM […] is indicated by means of vertical lines.
Six- to eight-week old female BALB/c (H-2d) mice were purchased from Harlan Winkelmann GmbH (Borchen, Germany) and treated in accordance with local and EU directives. Groups each of 5 mice were immunized on day 1, 14 and 21 either with 40 μg of pure β-galactosidase (Boehringer, Mannheim, Germany) with admixture of 0.5 μg of synthetic MALP-2 or 10 μg of cholera toxin B subunit (CTB; ICN Biomedicals Inc., Ohio) as standard adjuvant. For intranasal administration (i.n.), 10 μl were administered into each nostril, while for the i.p. injection β-galactosidase was resuspended with or without MALP-2 in 400, 100 or 100 μl of PBS. Serum samples were taken at various times (day 0, 13, 20 and 30) and stored at −20° C. until the β-galactosidase-specific antibodies were determined. Nunc-Immuno MaxiSorp assay plates with 96 wells (Nunc, Roskilde, Denmark) were coated with 100 μl of β-gal (Boehringer, Mannheim, Germany) with 5 μg/ml in 0.05 M […] (pH 8.2) per well. Serial two-fold dilutions of the sera or lavages in PBS with 1% BSA and 0.05% Tween-20 were added (100 μl/well) and the plates were incubated at 37° C. for 24 hours. After rinsing, biotinylated γ chain-specific goat anti-mouse IgG (Sigma Chemie, Deisenhofen, Germany) was added, and the plates were incubated at 37° C. for a further hour. After rinsing four times, 100 μl of peroxidase-conjugated streptavidin (Pharmingen) were added to the […], and the plates were incubated at 37° C. for 30 minutes. After rinsing four times, the reactions were developed by means of ABTS in 0.1 M citrate-phosphate buffer (pH 4.35) which contained 0.01% H2O2.

BALB/c (H-2d) mice [5] = assay: β-Galactosidase-specific T-cell proliferation of spleen and regional lymph node cells of immunized mice (Example 7); conditions: day 31
Method: The cells were restimulated in vitro with various concentrations of soluble β-galactosidase for four days. The results are shown as average cpm subtracted from the background values for unstimulated cells from groups of three. The SEM is depicted by vertical lines.
Lymph nodes located below the lower jaw and the spleens were removed and put together for the analysis of the cellular immune responses. The cells were grown in RPMI 1640 supplemented by 10% fetal calf serum, 10 U/ml penicillin, 50 μg/ml streptomycin, 5×10^−5 M 2-mercaptoethanol and 1 mM L-glutamine (GIBCO BRL, Karlsruhe, Germany) and stored at 37° C. in a moist atmosphere with 5% CO2. The suspensions of lymph node and spleen cells were adjusted to 5×10^6 cells/ml in complete medium and put in a flat-bottomed 96-well microtiter plate (Nunc) with 100 μl/well, and the plates were incubated in the presence of various concentrations of soluble β-galactosidase for 4 days. Each concentration was tested in groups of three. During the last 18 hours of the incubation, 1 ρCi of [^3H]thymidine (Amersham International, Freiburg, Germany) was added to each well. The cells were then harvested on filter paper (Filtermat A; Wallac, Freiburg, Germany) using a cell harvester (Inotech, Wohlen, Switzerland), and the amount of incorporated [^3H]thymidine in the DNA of the proliferated cells was determined with the aid of a […] (Wallac 1450, Micro-Trilux). The results have been shown as the arithmetic mean of the uptake of [^3H]thymidine in cpm.

[6] = mice immunized i.p. with pure β-galactosidase

CTB [reference compound]
IL-10 content in supernatants of spleen cells stimulated in vitro (BALB/c (H-2d) mice [1]; mice immunized i.n., β-gal restimulation): 0.6 ng/mL

β-gal: model antigen β-galactosidase administered pure, without adjuvant
β-galactosidase-specific IgA in lung rinsings (BALB/c (H-2d) mice [2]): no production of β-galactosidase-specific IgA in detectable quantity
β-Galactosidase-specific IgG1 in serum (BALB/c (H-2d) mice [3]; i.n.): 22.6 ± 21.3 µg/mL
β-Galactosidase-specific IgG2a in serum (BALB/c (H-2d) mice [3]; i.n.): 0.7 ± 0.5 µg/mL
β-Galactosidase-specific IgG2b in serum (BALB/c (H-2d) mice [3]; i.n.): 0.3 ± 0.1 µg/mL
β-Galactosidase-specific IgG3 in serum (BALB/c (H-2d) mice [3]; i.n.): 0.6 ± 0.0 µg/mL
β-Galactosidase-specific IgG1 in serum (BALB/c (H-2d) mice [3]; i.p.): 191.5 ± 132.1 µg/mL
β-Galactosidase-specific IgG2a in serum (BALB/c (H-2d) mice [3]; i.p.): 0.1 ± 0.0 µg/mL
β-Galactosidase-specific IgG2b in serum (BALB/c (H-2d) mice [3]; i.p.): 0.5 ± 0.1 µg/mL
β-Galactosidase-specific IgG3 in serum (BALB/c (H-2d) mice [3]; i.p.): 0.6 ± 0.0 µg/mL
β-galactosidase-specific antibody endpoint titer in serum (BALB/c (H-2d) mice [4]): about 1000
Th1 cytokines IL-2 and IFN-γ secreted by restimulated cells (BALB/c (H-2d) mice [1]; [6]): below the limit of detection
secretion of IL-10 and IL-4 by restimulated cells (BALB/c (H-2d) mice [1]; [6]): stimulated
proliferation of lymph node and spleen cells after in vitro restimulation with β-galactosidase (BALB/c (H-2d) mice [5]; i.n. immunization): no detectable cell proliferation
proliferation of spleen cells after in vitro restimulation with β-galactosidase (BALB/c (H-2d) mice [5]; i.p. immunization): significant proliferation response
